Test results as given in patent publication US12226379B2, “Highly sustainable compositions for modulation of gene expression in human skin, and methods of production thereof” (Visolis Technologies, Inc., priority 2022, dated 2025).

Columns and labels:
Assay type in all cases: cell-based
[1] = test system: normal human epidermal keratinocytes cells; assay: Cortisol production test (conversion of cortisone to cortisol, Alpha LISA); conditions: FIG. 13
Experimental: Impact of MVL on metabolism, specifically cortisol production, was conducted on keratinocytes. Generally, 11β-HSD1 (Hydroxysteroid Dehydrogenase Type 1) converts costisone to cortisol, which then induces stress response. Impact of MVL on conversion of cortisone to cortisol was evaluated. Cortisol production tests were conducted on normal human epidermal keratinocytes cells. […] Negative control samples contained PBS only. Cortisol production was subsequently measured via the Alpha LISA system.

[2] = test system: EpiSkin-LM 3-dimensional in-vitro human skin model; assay: Gene expression test (DNA microarray, mRNA) on the EpiSkin-LM reconstructed 3D skin model
Experimental: Gene expression tests were conducted on EpiSkin-LM™, a commercially available 3-dimensional in-vitro human skin model composed of normal human skin cells in a collagen matrix. Test samples contained either 0.5% or 1.0% of highly sustainable, high-purity MVL by weight in a phosphate-buffered saline (PBS) solution. Negative control samples contained PBS only.
Reconstructed 3D skin epidermal models (EpiSkin-LM™) were pre-incubated with 5 mL of maintenance medium for 24 hours per manufacturer instruction. 2 mL of the test samples or negative controls were applied on the top of the epidermis. The treated models were incubated for 24 hours. After incubation, the models were rinsed with PBS, then treated again with 2 mL test samples or the negative control and incubated an additional 24 hours.
After the second incubation, mRNA was extracted from the models by miRNeasy® Mini Kit (QIAGEN). mRNA expression level in the model was measured by a Genopal® DNA microarray chip. Modulation of gene expression level was expressed as the ratio of mRNA transcripts in the test-sample treated models to mRNA transcripts in the negative control models. Positive numbers indicated an increase in gene expression, and negative numbers indicated a decrease in gene expression relative to the negative control.

[3] = test system: normal human epidermal keratinocytes (NHEKs) cells; assay: Hyaluronic acid level in medium (ELISA, normalized to protein level); conditions: FIG. 15; for increase in hyaluronic acid levels: 48 hours, p<0.05
Experimental: Impact of MVL on hyaluronic acid, was conducted on keratinocytes. Hyaluronic acid is a crucial component of the skin. Impact of MVL on conversion of hyaluronic acid was evaluated. Hyaluronic acid tests were conducted on normal human epidermal keratinocytes (NHEKs) cells. Test samples contained 0-0.25% of highly sustainable, high-purity MVL by weight in a phosphate-buffered saline (PBS) solution. Negative control samples contained PBS only. Hyaluronic acid level in the medium was subsequently measured at 24 hours and 48 hours via ELISA and normalized to the protein level in the NHEK cells.

[4] = compositions containing 0.1 to 1.0 weight percent, human epithelial cells

How did the “conversion of cortisone to cortisol” value ([1]; 0.125-0.5% by weight, higher concentrations give larger decline in cortisol levels) turn out when `C[C@@]1(O)CCOC(=O)C1` [MVL, R-mevalonolactone] was run?
Its value is “potently modulates”.

What about the “reduction of cortisol production” value ([1]; 0.5% concentration in PBS with cortisone) of the same compound?
Its value is “over 15%”.

What about the “decrease in gene expression level relative to negative control (MMP1, MMP2, MMP3, MMP7, MMP9, NFATC1, IL1A, IL1B, TNFA, SELE, SELL, EDN1, EDN2, EDN3, PTGS2 (COX2), POMC)” value ([2]; 1.0% by weight in PBS, two 24 h treatments, genes of extracellular matrix degradation, inflammation, skin pigmentation (FIGS. 6-8)) of the same compound?
Its value is “at least 10%”.

And the “decrease in expression of genes related to ECM degradation, inflammation and pigmentation” value [2, 4]?
The value was “at least 10%”.

And the “increase in expression of genes related to epithelial turnover, hyaluronic acid synthesis, barrier function and anti-aging elasticity” value [2, 4]?
Its value is “at least 10%”.

And the “increase in hyaluronic acid levels” value ([3]; 0.13% concentration)?
The value was “over 5%”.

What about the hyaluronic acid levels ([3]; 0.13-0.25% by weight, higher concentrations give higher hyaluronic acid levels) of the same compound?
The hyaluronic acid levels was “potently modulates”.

What about the “increase in hyaluronic acid levels” value ([3]; 0.25% concentration) of the same compound?
Its value is “over 5%”.
